The source of these data is US20120270237A9, “METHODS FOR THE IDENTIFICATION OF KINASE INTERACTING MOLECULES AND FOR THE PURIFICATION OF KINASE PROTEINS” (Cellzone AG, priority 2009, published 2012).

What all share (experiment): Kinobeads competition binding, HL60 cell lysate
Parameters in all cases: endogenous in cells
What all share (details): 10 μM free compound

Assay [1] addresses CDC2 (Homo sapiens, UniProt P06493). The method, then:
(§1) To one aliquot of cell lysate 10 μM of the free compound (FIG. 3, CZC31326) was added and allowed to bind to proteins in the lysate. Then the affinity matrix with the immobilized compound (Example 1) was added to capture proteins that were not interacting with the previously added free compound. Beads were separated from the lysate and bead bound proteins were eluted in SDS sample buffer and subsequently separated by SDS-Polyacrylamide gel electrophoresis (FIG. 4). Suitable gel bands were cut out and subjected to in-gel proteolytic digestion with trypsin. The second lysate aliquot was processed identically, however no free compound was added (DMSO solvent control). Peptides originating from samples 1 and 2 were labeled with iTRAQ reagents (iTRAQ 114 and iTRAQ 117) and the combined samples were analyzed with a nano-flow liquid chromatography system coupled online to a tandem mass spectrometer (LC-MS/MS) experiment followed by iTRAQ reporter ion quantification in the MS/MS spectra (Ross et al., 2004. Mol. Cell. Proteomics 3(12):1154-1169). Further experimental protocols can be found in WO2006/134056 and a previous publication (Bantscheff et al., 2007. Nature Biotechnology 25, 1035-1044). Sepharose-beads with the immobilized compound (100 μl beads per pull-down experiment) were equilibrated in lysis buffer and incubated with a cell lysate sample containing 50 mg of protein on an end-over-end shaker (Roto Shake Genie, Scientific Industries Inc.) for 2 hours at 4° C. Beads were collected, transferred to Mobicol-columns (MoBiTech 10055) and washed with 10 ml lysis buffer containing 0.4% NP40 detergent, followed by 5 ml lysis buffer containing 0.2% detergent. To elute bound proteins, 60 μl 2×SDS sample buffer was added to the column. The column was incubated for 30 minutes at 50° C. and the eluate was transferred to a siliconized microfuge tube by centrifugation. Proteins were then alkylated with 108 mM iodoacetamid. Proteins were then separated by SDS-Polyacrylamide electrophoresis (SDS-PAGE). The peptide extracts of samples treated with 10 μM of free compound (CZC31326) and the solvent control (0.5% DMSO) were treated with different variants of the isobaric tagging reagent (iTRAQ Reagents Multiplex Kit, part number 4352135, Applied Biosystems, Foster City, Calif., USA). The iTRAQ reagents are a set of multiplexed, amine-specific, stable isotope reagents that can label peptides on amino groups in up to four different biological samples enabling simultaneous identification and quantitation of peptides. The iTRAQ reagents were used according to instructions provided by the manufacturer. The samples were resuspended in 10 μl 50 mM TEAB solution, pH 8.5 and 10 μl ethanol were added. The iTRAQ reagent was dissolved in 120 μl ethanol and 10 μl of reagent solution were added to the sample. The labeling reaction was performed at room temperature for one hour on a horizontal shaker and stopped by adding 5 μl of 100 mM TEAB and 100 mM glycine in water. The two labeled sampled were then combined, dried in a vacuum centrifuge and resuspended in 10 μl of 0.1% formic acid in water. Relative protein quantitation was performed using peak areas of iTRAQ reporter ion signals essentially as described in an earlier publication (Bantscheff et al., 2007. Nature Biotechnology 25, 1035-1044).

In assay [2] the target is CDK2 (Homo sapiens, UniProt P24941). The method, then: as §1
Assay [3] addresses CDK9 (Homo sapiens, UniProt P50750). The method, then:
as §1

The target in assay [4] is CaMK2d (Homo sapiens, UniProt Q13557). As for the experimental part: as §1
Assay [5] addresses FES (Homo sapiens, UniProt P07332). As for the experimental part:
as §1

Assay [6] has as its target JNK1 (Homo sapiens, UniProt P45983). As for the experimental part:
as §1

For assay [7], the target named is MAP3K3 (Homo sapiens, UniProt Q99759). As for the experimental part:
as §1

Assay [8] addresses T1, NEK9 (Homo sapiens, UniProt Q8TD19).
T1 sequence (Q8TD19 1-979): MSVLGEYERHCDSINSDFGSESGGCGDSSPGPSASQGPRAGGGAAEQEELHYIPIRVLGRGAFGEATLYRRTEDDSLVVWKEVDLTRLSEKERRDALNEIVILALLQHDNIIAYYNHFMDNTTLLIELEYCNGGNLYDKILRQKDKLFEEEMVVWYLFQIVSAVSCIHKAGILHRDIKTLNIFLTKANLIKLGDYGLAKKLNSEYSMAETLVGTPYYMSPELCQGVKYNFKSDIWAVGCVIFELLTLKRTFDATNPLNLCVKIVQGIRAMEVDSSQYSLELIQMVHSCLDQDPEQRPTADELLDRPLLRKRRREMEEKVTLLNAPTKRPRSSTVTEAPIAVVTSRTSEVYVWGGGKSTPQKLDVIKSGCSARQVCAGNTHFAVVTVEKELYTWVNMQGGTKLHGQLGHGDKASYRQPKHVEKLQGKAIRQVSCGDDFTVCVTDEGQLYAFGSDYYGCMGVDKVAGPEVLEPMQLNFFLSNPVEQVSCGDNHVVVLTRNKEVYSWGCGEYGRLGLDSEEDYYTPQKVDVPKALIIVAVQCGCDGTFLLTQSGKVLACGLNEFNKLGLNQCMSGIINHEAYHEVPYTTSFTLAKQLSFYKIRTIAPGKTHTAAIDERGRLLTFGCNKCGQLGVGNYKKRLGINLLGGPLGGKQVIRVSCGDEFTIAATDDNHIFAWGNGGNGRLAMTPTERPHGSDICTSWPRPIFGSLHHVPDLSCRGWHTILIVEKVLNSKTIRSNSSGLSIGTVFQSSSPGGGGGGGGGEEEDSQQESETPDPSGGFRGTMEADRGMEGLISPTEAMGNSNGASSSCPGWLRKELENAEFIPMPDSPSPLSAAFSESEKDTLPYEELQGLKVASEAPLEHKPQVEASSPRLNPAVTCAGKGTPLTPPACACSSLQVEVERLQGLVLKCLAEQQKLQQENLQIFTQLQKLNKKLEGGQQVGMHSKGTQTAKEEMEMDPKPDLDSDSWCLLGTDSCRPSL
As for the experimental part:
as §1

Assay [9] has as its target PKCa (Homo sapiens, UniProt P17252). As for the experimental part:
as §1

Assay [10] has as its target YES (Homo sapiens, UniProt P07947). The method, then:
as §1

CDK9, sequence (P50750 whole entry): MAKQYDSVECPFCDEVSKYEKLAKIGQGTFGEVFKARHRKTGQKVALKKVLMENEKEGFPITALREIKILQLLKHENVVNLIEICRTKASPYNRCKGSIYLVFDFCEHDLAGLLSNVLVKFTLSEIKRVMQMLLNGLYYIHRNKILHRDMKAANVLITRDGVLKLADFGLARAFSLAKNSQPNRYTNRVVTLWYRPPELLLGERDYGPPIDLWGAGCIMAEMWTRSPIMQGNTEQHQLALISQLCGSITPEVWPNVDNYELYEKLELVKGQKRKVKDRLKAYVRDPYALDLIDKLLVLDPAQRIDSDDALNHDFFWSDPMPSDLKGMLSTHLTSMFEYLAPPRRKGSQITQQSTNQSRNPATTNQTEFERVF
CaMK2d, sequence (Q13557 whole entry): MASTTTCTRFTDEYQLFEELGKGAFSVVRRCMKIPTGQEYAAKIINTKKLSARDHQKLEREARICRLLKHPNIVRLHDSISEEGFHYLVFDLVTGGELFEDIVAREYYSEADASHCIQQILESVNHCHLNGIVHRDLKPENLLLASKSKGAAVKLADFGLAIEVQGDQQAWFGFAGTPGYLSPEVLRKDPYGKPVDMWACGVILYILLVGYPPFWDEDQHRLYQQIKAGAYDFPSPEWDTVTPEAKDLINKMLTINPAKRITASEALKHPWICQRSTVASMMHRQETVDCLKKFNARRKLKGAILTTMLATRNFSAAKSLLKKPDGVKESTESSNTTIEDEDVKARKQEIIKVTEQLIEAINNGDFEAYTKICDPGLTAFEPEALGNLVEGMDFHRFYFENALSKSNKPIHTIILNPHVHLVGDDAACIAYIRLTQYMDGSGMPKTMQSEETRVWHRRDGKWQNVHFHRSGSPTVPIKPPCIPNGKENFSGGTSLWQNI
CDC2, sequence (P06493 whole entry): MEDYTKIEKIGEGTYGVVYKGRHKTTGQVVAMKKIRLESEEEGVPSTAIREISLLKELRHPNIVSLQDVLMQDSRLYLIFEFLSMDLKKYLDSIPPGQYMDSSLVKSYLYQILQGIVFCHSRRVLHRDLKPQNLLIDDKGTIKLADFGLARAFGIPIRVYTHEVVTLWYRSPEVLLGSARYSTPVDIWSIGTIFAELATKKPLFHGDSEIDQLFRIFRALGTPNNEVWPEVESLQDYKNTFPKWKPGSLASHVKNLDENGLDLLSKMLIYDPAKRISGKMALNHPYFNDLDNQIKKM
JNK1, sequence (P45983 whole entry): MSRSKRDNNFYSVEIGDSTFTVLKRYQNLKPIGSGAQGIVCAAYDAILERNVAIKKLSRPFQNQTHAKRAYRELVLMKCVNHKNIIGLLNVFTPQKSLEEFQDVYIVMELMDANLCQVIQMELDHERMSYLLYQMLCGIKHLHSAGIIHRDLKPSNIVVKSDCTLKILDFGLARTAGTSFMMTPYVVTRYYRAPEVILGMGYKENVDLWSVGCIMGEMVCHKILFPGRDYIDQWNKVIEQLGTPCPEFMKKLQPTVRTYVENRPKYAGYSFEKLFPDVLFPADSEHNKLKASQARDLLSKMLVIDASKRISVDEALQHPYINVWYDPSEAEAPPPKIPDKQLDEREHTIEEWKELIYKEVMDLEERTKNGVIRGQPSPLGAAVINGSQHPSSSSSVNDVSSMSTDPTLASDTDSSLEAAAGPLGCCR
YES, sequence (P07947 whole entry): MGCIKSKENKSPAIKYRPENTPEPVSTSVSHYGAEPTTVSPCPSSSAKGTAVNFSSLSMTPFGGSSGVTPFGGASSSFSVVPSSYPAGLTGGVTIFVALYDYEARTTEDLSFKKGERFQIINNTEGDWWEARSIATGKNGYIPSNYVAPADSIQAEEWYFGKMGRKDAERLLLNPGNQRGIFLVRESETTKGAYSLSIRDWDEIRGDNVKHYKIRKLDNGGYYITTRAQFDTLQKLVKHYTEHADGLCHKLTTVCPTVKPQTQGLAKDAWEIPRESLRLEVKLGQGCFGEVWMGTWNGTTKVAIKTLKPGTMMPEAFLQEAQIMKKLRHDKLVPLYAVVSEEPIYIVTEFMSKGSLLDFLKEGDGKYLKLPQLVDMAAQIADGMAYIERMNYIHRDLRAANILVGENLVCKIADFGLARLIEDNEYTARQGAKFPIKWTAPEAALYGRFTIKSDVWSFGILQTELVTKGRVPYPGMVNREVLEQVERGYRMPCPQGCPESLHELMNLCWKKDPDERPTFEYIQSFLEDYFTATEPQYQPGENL
FES, sequence (P07332 whole entry): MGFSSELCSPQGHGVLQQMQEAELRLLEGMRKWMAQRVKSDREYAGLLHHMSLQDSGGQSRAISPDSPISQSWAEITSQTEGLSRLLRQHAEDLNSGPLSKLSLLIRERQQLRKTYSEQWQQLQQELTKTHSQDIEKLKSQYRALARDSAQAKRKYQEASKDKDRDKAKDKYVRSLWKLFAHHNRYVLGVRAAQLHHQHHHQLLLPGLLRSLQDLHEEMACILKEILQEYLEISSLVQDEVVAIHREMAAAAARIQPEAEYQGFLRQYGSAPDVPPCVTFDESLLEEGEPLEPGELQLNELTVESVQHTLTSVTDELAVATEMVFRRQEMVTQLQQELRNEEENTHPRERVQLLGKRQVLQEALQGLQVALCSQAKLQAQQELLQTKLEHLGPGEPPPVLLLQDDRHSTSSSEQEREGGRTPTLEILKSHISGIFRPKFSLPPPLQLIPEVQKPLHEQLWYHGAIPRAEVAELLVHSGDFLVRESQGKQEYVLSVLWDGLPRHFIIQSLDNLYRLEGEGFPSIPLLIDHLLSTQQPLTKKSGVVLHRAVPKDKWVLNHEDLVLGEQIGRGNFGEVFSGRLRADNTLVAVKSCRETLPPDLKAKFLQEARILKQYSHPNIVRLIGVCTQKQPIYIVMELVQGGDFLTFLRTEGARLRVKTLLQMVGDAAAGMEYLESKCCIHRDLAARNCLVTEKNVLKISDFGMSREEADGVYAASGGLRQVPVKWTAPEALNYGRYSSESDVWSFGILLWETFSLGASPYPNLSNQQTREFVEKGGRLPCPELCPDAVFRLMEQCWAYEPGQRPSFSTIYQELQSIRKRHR
MAP3K3, sequence (Q99759 whole entry): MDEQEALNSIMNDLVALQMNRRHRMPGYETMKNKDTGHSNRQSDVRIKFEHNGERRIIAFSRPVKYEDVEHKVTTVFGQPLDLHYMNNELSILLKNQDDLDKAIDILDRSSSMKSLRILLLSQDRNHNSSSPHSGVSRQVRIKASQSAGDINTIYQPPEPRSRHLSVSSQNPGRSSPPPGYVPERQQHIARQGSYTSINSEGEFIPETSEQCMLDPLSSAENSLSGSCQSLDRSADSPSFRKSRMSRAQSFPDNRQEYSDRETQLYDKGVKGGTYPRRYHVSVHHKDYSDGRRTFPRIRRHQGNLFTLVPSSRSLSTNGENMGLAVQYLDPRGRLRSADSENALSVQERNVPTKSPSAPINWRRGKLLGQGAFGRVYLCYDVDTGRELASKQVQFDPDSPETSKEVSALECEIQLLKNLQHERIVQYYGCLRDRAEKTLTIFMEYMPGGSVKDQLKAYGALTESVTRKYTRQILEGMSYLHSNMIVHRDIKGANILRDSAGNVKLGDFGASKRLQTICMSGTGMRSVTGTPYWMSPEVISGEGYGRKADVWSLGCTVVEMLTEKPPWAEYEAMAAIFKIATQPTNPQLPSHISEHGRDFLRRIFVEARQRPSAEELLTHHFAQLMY

`CS(=O)(=O)Nc1ccccc1Nc1nc(Nc2cccc(OCCN)c2)ncc1Cl` [CZC31326, N-(2-(2-(3-(2-aminoethoxy)phenylamino)-5-chloropyrimidin-4-ylamino)phenyl)methanesulfonamide]: the inhibition at 10 µM in assay [1] was 93.1%; in assay [3], 98.2%; in [4], 90.4%; in assay [5], 96.3%; in assay [7] it was 97.6%; in assay [8] it was 93%. Moreover, the results for the inhibition at 10 µM in assay [9] and in assay [10] were 96.2% and 91.1%, respectively. Moreover, the Competition % was determined as 95.1% in assay [2] and 88.8% in assay [6].
